From patent publication US11752162B2, “Compounds and compositions for treating solid tumors by intratumoral administration” (Novartis AG, priority 2017, dated 2023)

Assays:
[1] = Adsorption of compounds to aluminum hydroxide in histidine buffer (pH 6.8); type: physicochemical; conditions: histidine buffer pH 6.8, 0.1 mg/mL compound, 37° C. 5 hours
Protocol: The resulting solution was diluted 10-fold with blank histidine buffer to a final compound concentration of 0.1 mg/mL. Diluted solutions were incubated at 37° C. for 5 hours. The samples were centrifuged at 14,000 rpm for 10 minutes to pellet the insoluble. The supernatant (along with an internal standard) was then evaluated by LC-MS/MS using a ballistic gradient (from 5% CH3CN-0.5% formic acid to 95% CH3CN-1.0% formic acid in 3.5 minutes) on a Waters Atlantis dC18 (50 mm×2.1 mm) column at room temperature against a calibration curve prepared at known compound concentrations ranging from 0.005 to 50 μM. The concentration in the supernatant was calculated as % unbound to aluminum hydroxide compared to control; the % bound to aluminum hydroxide was calculated as 100% minus % unbound.

in vivo [2] = conditions: male, Wistar, rat, iv, 1 mg/kg
Protocol: Note: The pharmacokinetic properties of Compound 15 in 50 mM Tris/0.9% NaCl (pH 7.4) were examined in male Wistar rats following a single 1 mg/kg intravenous bolus administration.

MC38 tumors = assay: Contralateral MC38 colon cancer model, alone or with checkpoint inhibitors; type: in vivo, mouse; conditions: Compound 15 alone, without aluminum hydroxide, 50 μg i.t.
Protocol: MC38 cells were grown in sterile conditions in a 37° C. incubator with 5% CO2 for two weeks. The cells were cultured in Dulbecco's Modified Eagle's medium (DMEM) media supplemented with 10% FBS, cells were passed every 2-3 days. On the day of injection, cells were harvested (Passage 12) and re-suspended in Hanks' Balanced Salt Solution (HBSS) at a concentration of 2.5×10^6/ml. Cells were Radil tested for mycoplasma and murine viruses.
For each mouse, 0.25×10^6 cells were implanted with subcutaneously injection into right flank using a 28½ g needle ([…]). After the first implantation on day 3 (0.25×10^6) cells are implanted with a subcutaneous injection into left flank using a 28½ g needle (100 μL injection volume). Tumor sizes were assessed three times a week once tumors were palpable. Tumor sizes were determined by using caliper measurements, with tumor volumes calculated using the formula: (Length×Width×Width)/2.
Female C57BL/6 mice bearing the MC38 tumors were randomized into 7 groups (n=9 mice per group) 9 days post tumor cell implantation with an average tumor volume range of 69.09-142.25 mm^3, and the separate groups of tumor bearing mice received treatment as shown in Table 17.
The anti-tumor efficacy of Compound 15 adsorbed to aluminum hydroxide (Alhydrogel®) alone or in combination with checkpoint inhibitors, was determined using a contralateral MC38 colon cancer model. The tumor volume was obtained after two weekly intratumoral injections of Compound 15 adsorbed to aluminum hydroxide (50 μg each) either alone (Group 2), in a double combination with intraperitoneal injection (twice weekly) of an anti-PD-L1 antibody (10 mg/kg) (Group 5), in a double combination with intraperitoneal injection (twice weekly) of an anti-CTLA4 antibody (10 mg/kg) (Group 6), or in a triple combination with intraperitoneal injection (twice weekly) of an anti-PD-L1 antibody (10 mg/kg) and with intraperitoneal injection of an anti-CTLA4 antibody (10 mg/kg) (group 7). For comparison, data was obtained after an intraperitoneal injection (twice weekly) of the anti-PD-L1 antibody (10 mg/kg) alone (Group 3) and after an intraperitoneal injection (twice weekly) of the anti-CTLA4 antibody (10 mg/kg) alone (Group 4). The untreated control data was also obtained (Group 1).
The anti-tumor efficacy of Compound 15 alone (without aluminum hydroxide (Alhydrogel®)) or in combination with checkpoint inhibitors was determined using a contralateral MC38 colon cancer model. […] In addition, the anti-tumor efficacy of Compound 15 adsorbed to aluminum hydroxide (Alhydrogel®) alone or in a triple combination with checkpoint inhibitors was determined using a contralateral MC38 colon cancer model. […]

in vivo [3] = conditions: female, C57/BL6, mouse, iv, 2 mg/kg

Structure (SMILES): Cc1cc(OCCOCCC(F)(F)P(=O)(O)O)ccc1CCc1cnc2c(N)nc3cc(CCC(=O)O)ccc3c2c1 [Compound 15, 3-(5-amino-2-(4-(2-(3,3-difluoro-3-phosphonopropoxy)ethoxy)-2-methylphenethyl)benzo[f][1,7]naphthyridin-8-yl)propanoic acid]
- % Bound [1]: 96.0%
- MRT (in vivo [2]): 12 min
- half-life (in vivo [2]): 72 min
- clearance (in vivo [2]; pH 7.4): 9.2 mL/min/kg
- difference from the no treatment group, contralateral tumor site (MC38 tumors): did not show a difference from the no treatment group
- difference from the no treatment group, primary injection site (MC38 tumors): did not show a difference from the no treatment group
- MRT (in vivo [3]): 10.2 min
- clearance (in vivo [3]): 18.1 mL/min/kg
- half-life (in vivo [3]): 60 min
